Values joined by “and” are separate entries in the source; they are usually repeats but may differ in a detail not shown here. Equal entries are not always repeated.
Assays:
Cdk2(H71C) (C177A) = biological target: T1, Cdk2(H71C) (C177A) (Homo sapiens, UniProt P24941, C177A/H71C); assay: Kinetic thiol consumption assay with Cdk2 mutant H71C; assay type: binding; design: key to Rate enhancement, Cdk2 H71C: rate constant with Cdk2 ÷ rate constant with model thiol (fold); details: for Rate enhancement, Cdk2 H71C / Rate constant with Cdk2 H71C: additional mutation C177A; for Rate constant with Cdk2 H71C: Protein: Cdk2, cysteine position H71C, in h^-1
T1 construct: poly-histidine; made in house; host or cells: E. coli
Method in brief: (§1)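 Thiol consumption was monitored kinetically using 5 μM Cdk2 (C177A plus one introduced cysteine) in degassed phosphate buffer at pH 8 with TCEP beads. Plates were kept 1 h at room temperature before fluorescence reading, and rate constants came from exponential decay fitting.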

Cdk2(F80C, C177A) [1] = biological target: T2, Cdk2(F80C, C177A) (Homo sapiens, UniProt P24941, C177A/F80C); assay: Intact protein mass spectrometry of labelling; assay type: binding; details: after 2 hours of incubation
T2 construct: poly-histidine; made in house; host or cells: E. coli
Source text: Mass spectrometry and X-ray crystallography were used to validate the binding of a hit ligand identified by the present method.
From the screen of Cdk2(F80C, C177A), we identified EL1071 as a hit molecule (rate enhancement relative to GSH=60.5).

Cdk2(F80C, C177A) [2] = biological target: T2, Cdk2(F80C, C177A); assay: Kinase assay; assay type: biochemical; details: Cdk2(F80C, C177A) labelled with ligand
Source text: Again, 1-Cdk2 refers to Cdk2(F80C, C177A) labelled with EL1071 (FIG. 10(c)). Finally, the EL1071-Cdk2(F80C, C177A) complex was crystallized and the structure determined by X-ray crystallography (FIG. 11). This confirms that the ligand binds to the cysteine residue at F80C and blocks the protein's active site leading to the observed inhibition.

[3] = biological target: T3, human cyclin-dependent kinase 2 (Cdk2) (Homo sapiens, UniProt P24941); assay: Kinetic thiol consumption assay with wild type Cdk2 (C177); assay type: binding; design: key to Rate enhancement, Cdk2 WT: k(Cdk2) divided by k(model thiol); Rate constant with Cdk2 (k(Cdk2)): unit not given here; details: for Rate constant with Cdk2 (k(Cdk2)): 500 μM ligand, 5 μM thiol, phosphate buffer pH 8; for Rate enhancement, Cdk2 WT: no additional mutations; for Rate constant with Cdk2 WT: Protein: Cdk2, cysteine position WT, in h^-1; for k(Cdk2)/k(Cdk2_mut) rate enhancement: model thiol Cdk2[C177A, F80C, K278C]; for k(Cdk2)/k(GSH) rate enhancement: model thiol glutathione
T3 construct: poly-histidine; made in house; host or cells: E. coli
Method in brief: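 Rate constants came from first-order exponential decay fits of normalized fluorescence against time, with thiol (5 μM) in degassed pH 8 phosphate buffer containing 2% v/v TCEP beads and reads after 1 h at room temperature.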

Cdk2(S276C) (C177A) = biological target: T4, Cdk2(S276C) (C177A) (Homo sapiens, UniProt P24941, C177A/S276C); assay: Kinetic thiol consumption assay with Cdk2 mutant S276C; assay type: binding; design: key to Rate enhancement, Cdk2 S276C: rate constant with Cdk2 ÷ rate constant with model thiol (fold); details: for Rate enhancement, Cdk2 S276C / Rate constant with Cdk2 S276C: additional mutation C177A; for Rate constant with Cdk2 S276C: Protein: Cdk2, cysteine position S276C, in h^-1
T4 construct: poly-histidine; made in house; host or cells: E. coli
Method in brief: as §1

Cdk2[C177A, F80C, K278C] = biological target: T5, Cdk2[C177A, F80C, K278C] (Homo sapiens, UniProt P24941, C177A/F80C/K278C); assay: Kinetic thiol consumption assay with mutant Cdk2 as model thiol; assay type: binding; design: unit not given here; details: 500 μM ligand, 5 μM thiol, phosphate buffer pH 8
T5 construct: poly-histidine; made in house; host or cells: E. coli
Method in brief: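 First-order rate constants were derived by exponential-decay fitting of DMSO/thiol-normalized fluorescence (380/470 nm) over time at room temperature. Thiol was 5 μM E. coli-expressed His-tagged Cdk2 mutant C177A/F80C/K278C in degassed pH 8 phosphate buffer containing 2% v/v TCEP beads.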

Cdk2(C177A, F80C) = biological target: T6, Cdk2(C177A, F80C) (Homo sapiens, UniProt P24941, C177A/F80C); assay: Kinetic thiol consumption assay with Cdk2 mutant F80C, incl. kobs versus concentration (Kd, k2); assay type: binding; design: key to Rate enhancement, Cdk2 F80C: Cdk2 rate constant divided by model-thiol rate constant; details: for Rate enhancement, Cdk2 F80C / Rate constant with Cdk2 F80C: additional mutation C177A; for Rate constant with Cdk2 F80C: Protein: Cdk2, cysteine position F80C, in h^-1
T6 construct: poly-histidine; made in house; host or cells: E. coli
Method in brief: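 His-tagged Cdk2(C177A/F80C) from E. coli or model thiol, 5 μM in degassed phosphate buffer pH 8 with TCEP beads, reacted with acrylamide ligands; fluorescence (ex/em 380/470 nm) normalized to DMSO control and fitted to first-order decay for kobs. Kd and k2 obtained from hyperbolic fit of kobs versus ligand concentration.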

Cdk2(T182C) (C177A) = biological target: T7, Cdk2(T182C) (C177A) (Homo sapiens, UniProt P24941, C177A/T182C); assay: Kinetic thiol consumption assay with Cdk2 mutant T182C; assay type: binding; design: key to Rate enhancement, Cdk2 T182C: rate constant with Cdk2 ÷ rate constant with model thiol (fold); details: for Rate enhancement, Cdk2 T182C / Rate constant with Cdk2 T182C: additional mutation C177A; for Rate constant with Cdk2 T182C: Protein: Cdk2, cysteine position T182C, in h^-1
T7 construct: poly-histidine; made in house; host or cells: E. coli
Method in brief: as §1

Cdk2(R122C) (C177A) = biological target: T8, Cdk2(R122C) (C177A) (Homo sapiens, UniProt P24941, C177A/R122C); assay: Kinetic thiol consumption assay with Cdk2 mutant R122C; assay type: binding; design: key to Rate enhancement, Cdk2 R122C: rate constant with Cdk2 ÷ rate constant with model thiol (fold); details: for Rate enhancement, Cdk2 R122C / Rate constant with Cdk2 R122C: additional mutation C177A; for Rate constant with Cdk2 R122C: Protein: Cdk2, cysteine position R122C, in h-1
T8 construct: poly-histidine; made in house; host or cells: E. coli
Method in brief: as §1

[4] = Kinetic thiol consumption assay with model thiol glutathione; assay type: physicochemical; design: Rate constant with glutathione (k(GSH)): unit not given here; details: for Rate constant with glutathione (k(GSH)): 500 μM ligand, 5 μM thiol, phosphate buffer pH 8; for Rate constant with Glutathione: Protein: Glutathione, cysteine position NA, in h-1
Method in brief: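 First, 5 μM glutathione in degassed phosphate buffer (pH 8) receives immobilized TCEP beads (2% v/v). Then acrylamide is added and plates incubate 1 h at room temperature. Finally, fluorescence (380/470 nm) is normalized and fitted to first-order decay for rate constants.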

Cdk2(S181C) (C177A) = biological target: T9, Cdk2(S181C) (C177A) (Homo sapiens, UniProt P24941, C177A/S181C); assay: Kinetic thiol consumption assay with Cdk2 mutant S181C; assay type: binding; design: key to Rate enhancement, Cdk2 S181C: rate constant with Cdk2 ÷ rate constant with model thiol (fold); details: for Rate enhancement, Cdk2 S181C / Rate constant with Cdk2 S181C: additional mutation C177A; for Rate constant with Cdk2 S181C: Protein: Cdk2, cysteine position S181C, in h^-1
T9 construct: poly-histidine; made in house; host or cells: E. coli
Method in brief: as §1

Cdk2(N272C) (C177A) = biological target: T10, Cdk2(N272C) (C177A) (Homo sapiens, UniProt P24941, C177A/N272C); assay: Kinetic thiol consumption assay with Cdk2 mutant N272C; assay type: binding; design: key to Rate enhancement, Cdk2 N272: rate constant with Cdk2 ÷ rate constant with model thiol (fold); details: for Rate enhancement, Cdk2 N272: Cdk2 N272, additional mutation C177A; for Rate constant with Cdk2 N272C: Protein: Cdk2, cysteine position N272C, additional mutation C177A, in h^-1
T10 construct: poly-histidine; made in house; host or cells: E. coli
Method in brief: as §1

[5] = test system: Cdk2 constructs (except Cdk(WT)); assay: Average of several thiols (Cdk2 constructs except WT) as model thiol; assay type: binding, human; details: average over all Cdk2 constructs except Cdk2(WT)
Method: In Example 1 rate enhancements were calculated relative to the control thiol, glutathione.
As an example, the rate constant for ligand candidate EL1157 in reaction with all the Cdk2 constructs (except Cdk(WT)) were averaged and then compared to the rate constant with Cdk2(WT).

Row | Rate enhancement, Cdk2 H71C (Cdk2(H71C) (C177A)) | Rate constant with Cdk2 H71C (Cdk2(H71C) (C177A)) | Rate constant with Cdk2 (k(Cdk2)) [3] | Rate enhancement, Cdk2 WT [3] | Rate constant with Cdk2 WT [3] | k(Cdk2)/k(Cdk2_mut) rate enhancement [3] | k(Cdk2)/k(GSH) rate enhancement [3] | Rate enhancement, Cdk2 S276C (Cdk2(S276C) (C177A)) | Rate constant with Cdk2 S276C (Cdk2(S276C) (C177A)) | Rate constant with Cdk2[C177A, F80C, K278C] (k(Cdk2_mut)) (Cdk2[C177A, F80C, K278C]) | Rate enhancement, Cdk2 F80C (Cdk2(C177A, F80C)) | Rate constant with Cdk2 F80C (Cdk2(C177A, F80C)) | Rate enhancement, Cdk2 T182C (Cdk2(T182C) (C177A)) | Rate constant with Cdk2 T182C (Cdk2(T182C) (C177A)) | Rate enhancement, Cdk2 R122C (Cdk2(R122C) (C177A)) | Rate constant with Cdk2 R122C (Cdk2(R122C) (C177A)) | Rate enhancement, Cdk2 S181C (Cdk2(S181C) (C177A)) | Rate constant with Cdk2 S181C (Cdk2(S181C) (C177A)) | SMILES | Rate constant with glutathione (k(GSH)) [4] | Rate constant with Glutathione [4] | also measured
1 | 7.215 | 0.3666 | 0.433 | 8.522 | 0.433 | 1.341 | 8.5 and 8.576 | 1.09 | 0.05538 | 0.323 | 60.48 | 3.073 | 7.764 | 0.3945 | 0.2848 | 0.01447 | 0.5036 | 0.02559 | C=CC(=O)N1CCCc2cc(C(=O)OC)ccc21 [EL-1071] | 0.051 and 0.05049 | 0.05081 | modification of Cdk2(F80C, C177A) by intact protein mass spectrometry (Cdk2(F80C, C177A) [1]): completely monomodified; inhibition of kinase activity (Cdk2(F80C, C177A) [2]): completely inhibited; hit classification, Example 1 ([3]; hits defined as kCdk2/kGSH>5.8 (3 standard deviations over the mean)): hit fragment; hit classification against Cdk2(F80C, C177A) (Cdk2(C177A, F80C)): hit molecule; rate enhancement relative to GSH (Cdk2(C177A, F80C); Cdk2(F80C, C177A) versus GSH): 60.5; Rate enhancement, Cdk2 N272 (Cdk2(N272C) (C177A)): 0.6083; Rate constant with Cdk2 N272C (Cdk2(N272C) (C177A)): 0.03091
2 | 0.3892 | 0.02618 | 0.2006 | 2.982 | 0.2006 | 0.6586 | 1.592 | 1.046 | 0.07038 | 0.3046 | 0.5847 | 0.03933 | 2.337 | 0.1572 | 0.07164 | 0.004819 | 0.2053 | 0.01381 | C=CC(=O)N1CCN(C(=O)OC(C)(C)C)c2ccccc21 [EL-1157] | 0.126 | 0.06726 | Rate constant k(Cdk2(H71C)) (Cdk2(H71C) (C177A)): 0.0261 h⁻¹; Rate constant k(Cdk2(WT)) [3]: 0.2006 h⁻¹; k(Cdk2(WT))/k(average) ([3]; average of multiple Cdk2 mutants as control thiol): 4.46; Rate constant k(average) [5]: 0.0449 h⁻¹; Rate constant k(Cdk2(S276C)) (Cdk2(S276C) (C177A)): 0.0704 h⁻¹; Rate constant k(Cdk2(F80C)) (Cdk2(C177A, F80C)): 0.0393 h⁻¹; Rate constant k(Cdk2(T182C)) (Cdk2(T182C) (C177A)): 0.1572 h⁻¹; Rate constant k(Cdk2(R122C)) (Cdk2(R122C) (C177A)): 0.0048 h⁻¹; Rate constant k(Cdk2(S181C)) (Cdk2(S181C) (C177A)): 0.0138 h⁻¹; Rate constant k(Cdk2(N272C)) (Cdk2(N272C) (C177A)): 0.0029 h⁻¹; Rate enhancement, Cdk2 N272 (Cdk2(N272C) (C177A)): 0.04255; Rate constant with Cdk2 N272C (Cdk2(N272C) (C177A)): 0.002862
